We go through 2 compounds from PMC5006645 (EBioMedicine, 2016).

The subject of one data set is S273pPPARγ. The data set can be described thus: Inhibition of S273 phosphorylation of PPARγ. The format is biochemical.
Data set [1] is described as follows: Plasma levels at the end of experiments. Type of data set: in vivo, C57BL/6 mice. As to conditions: for concentration at 4 days: C57BL/6, mouse, plasma, 5 mg/kg/d.
The test system of the next data set is cortical bone. Description: Cortical tissue mineral density. The format is in vivo, C57BL/6 mice. As to conditions: mouse model not stated; control 954.6 ± 17.6.
A further data set deals with PPARγ. The format is cell-based. The conditions noted are these: AD2 cells; 1 μM rosiglitazone or 5 μM SR10171 1 h, then TNF-α 50 ng/ml 1 h.
A further data set deals with marrow MSCs. Description: Marrow MSC cultures: adipocyte markers and CFU-OB osteoblast differentiation. Type of data set: cell-based. As to conditions: marrow MSC culture, 6 days; 10 μM SR10171 or 1 μM rosiglitazone.
Data set [2] has as its system non-adherent bone marrow cells. Description: Osteoclastogenesis assay from non-adherent bone marrow cells. Type of data set: cell-based. As to conditions: ex vivo; 10 μM SR10171 or 1 μM rosiglitazone; M-CSF and RANKL.
Data set [3] concerns TCF/LIF/β-catenin complex. The data set can be described thus: Top-Flash luciferase reporter in U33/γ2 cells. Type of data set: cell-based. The conditions noted are these: 72 h. For orientation: A reporter such as luciferase makes a cellular process visible.
Data set [4] in a line: Glucose tolerance test in DIO mice. Type of data set: in vivo, C57BL/6 mice. As to conditions: DIO animals, 25 mg/kg/d, 4 weeks.
Data set [5] deals with osteocytes from femora cortical bone. Description: Gene expression in osteocytes freshly isolated from femora of treated animals. Type of data set: in vivo, C57BL/6 mice.
For the next data set, the target named is T1, PPARα (Homo sapiens, UniProt Q07869).
T1 sequence (Q07869 200-468 limits assumed): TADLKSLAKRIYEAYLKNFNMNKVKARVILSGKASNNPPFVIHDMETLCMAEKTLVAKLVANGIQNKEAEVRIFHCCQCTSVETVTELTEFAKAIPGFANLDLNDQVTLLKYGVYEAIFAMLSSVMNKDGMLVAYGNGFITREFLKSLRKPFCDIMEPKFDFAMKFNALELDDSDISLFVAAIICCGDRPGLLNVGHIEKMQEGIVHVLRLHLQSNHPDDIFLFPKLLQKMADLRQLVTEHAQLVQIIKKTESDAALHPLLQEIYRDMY

Data set [6] relates to trabecular and cortical bone of lean C57BL/6 mice. The conditions noted are these: 15 mg/kg/d, 8 weeks; previously established, ref not given; cited from earlier work.
For data set [7] the test system is unchanged. The data set can be described thus: Lean mice experiment: bone mCT and histomorphometry. The conditions noted are these: for mineral apposition rate (MAR) and bone formation rate (BFR): proximal tibia.
Data set [8] deals with bone and marrow fat of DIO C57BL/6 mice. Type of data set: in vivo.
Data set [9] can be described thus: Body weight of treated mice. Type of data set: in vivo, C57BL/6 mice.
[10] abbreviates: midshaft tibia, calcein labeling.

Consider `CN(CCOc1ccc(CC2SC(=O)NC2=O)cc1)c1ccccn1` (racemic) [Rosiglitazone, (RS)-5-[4-(2-[methyl(pyridin-2-yl)amino]ethoxy)benzyl]thiazolidine-2,4-dione, reference compound], for which, in the data set on S273pPPARγ (20 μM), the “% inhibition S273pPPARγ (20 μM)” value worked out at 100%. The compound further registered a concentration at 4 days in data set [1] of 1670 nM. For the same compound, the “cortical tissue mineral density (TMD)” value in the data set on cortical bone came to 954.5 ± 17.9 mg HA/cm^3. In the data set with PPARγ, the “phosphorylation of S112 of PPARγ” value is on record as “alters” and the “phosphorylation of S273 of PPARγ” value is “block”. Besides, the “basal expression of Fabp4 and Adipoq” value in the data set with marrow MSCs is reported as “increased”. The “number of multi-nucleated TRAP-positive osteoclast-like cells” value in data set [2] was “increased”. Further, the “β-catenin transcriptional activity (Top-Flash)” value in data set [3] is on record as “decreased”. Besides, the glucose tolerance result in data set [4] is recorded as “normalized”. In addition, in [5], the “Dkk1 expression in osteocytes of treated animals” value is on record as “increased” and the “Sost expression in osteocytes of treated animals” value is reported as “unaffected”. Further, on PPARα, the “EC50 PPARα GAL-4” value is “No activity”. Besides, the “decrease of bone mass” value in [6] is 20%. In addition, in data set [7] (15 mg/kg/d, 8 weeks), the “increase of adipocyte number” value came out at 5 fold; the trabecular bone mass result is recorded as “decreased”; the “mineral apposition rate (MAR) and bone formation rate (BFR)” value is “attenuated”.

Consider `Cc1c(C)n(Cc2cccc(OC(C)(C)C(=O)O)c2)c2ccc(C(=O)N[C@@H](C)c3ccc(C(C)(C)C)cc3)cc12` [SR10171, (S)-2-(3-((5-((1-(4-(tert-butyl)phenyl)ethyl)carbamoyl)-2,3-dimethyl-1H-indol-1-yl)methyl)phenoxy)-2-methylpropanoic acid], for which the “S273 phosphorylation blocking activity, lower than rosiglitazone” value in the data set on S273pPPARγ (relative to rosiglitazone) stood at 50%. In addition, the concentration at 4 days in data set [1] was 4010 nM. The “retention levels in plasma, higher than rosiglitazone” value in [1] (animals treated for 4 days) is on record as 2.5 fold. Further, in data set [8] (25 mg/kg/d, 4 weeks, tibia), the “decrease in marrow fat volume vs no drug control” value is about 5 fold. Besides, in data set [8] (setting [10]), the “periosteal labeling, times larger than control” value was 9 fold. Moreover, in the data set on cortical bone, the “cortical tissue mineral density (TMD)” value worked out at 978.6 ± 10.4 mg HA/cm^3. Also, the “basal expression of Fabp4 and Adipoq” value with marrow MSCs is reported as “decreased”. Further, the “number of multi-nucleated TRAP-positive osteoclast-like cells” value in data set [2] was “increased”. Besides, the glucose tolerance entry in [4] was “normalized”. Moreover, the body weight entry in data set [9] (DIO mice maintained on HFD, 25 mg/kg/d, 4 weeks) is reported as “decreased”. The body weight entry in [9] (lean animals, 15 mg/kg/d, 8 weeks) is recorded as “no impact”. Moreover, in data set [5], the “Dkk1 expression in osteocytes of treated animals” value is listed as “decreased” and the “Sost expression in osteocytes of treated animals” value is given as “decreased”. In data set [7] (15 mg/kg/d, 8 weeks), the “Trabecular bone mass in proximal tibia, increase vs non-treated controls” value came out at 26%; the “decrease of number of marrow adipocytes” value is 50%; the “mineral apposition rate (MAR) and bone formation rate (BFR)” value is on record as “increase”. In addition, the “periosteal labeling, times larger than control” value in [7] (setting [10]) is 1.5 fold.
